Test [1] concerns asynchronous 3D7 chloroquine-sensitive P. falciparum infected red blood cells. The experiment in a line: Labeled hypoxanthine incorporation assay (in vitro anti-malarial activity). Type of test: cell-based. The conditions noted are these: Plasmodium falciparum, 3D7, Erythrocyte, 3D7 chloroquine-sensitive strain, infected RBC, 48 h contact, [3H]-hypoxanthine incorporation; two independent experiments in duplicates; read-out: IC50 assessed on Plasmodium Falciparum.

Test [2] concerns Toxoplasma gondii RH-β1 strain. The experiment in a line: microbe, parasite or virus in culture. Type of test: cell-based. The conditions noted are these: Toxoplasma gondii, read-out: IC50 assessed on Toxoplama Gondii.

Molecules are shown by their SMILES. Counter-ions that a name gives are not always drawn.

The IC50 is the midpoint of a concentration-inhibition curve. As to `CC(C)C[C@@H](COC(=O)N1CCC(n2c(=O)[nH]c3ccccc32)CC1)N(Cc1ccccc1)C(=O)OC(C)(C)C` [Compound 105, (S)-2-(benzyl(tert-butoxycarbonyl)amino)-4-methylpentyl 4-(2-oxo-2,3-dihydro-1H-benzo[d]imidazol-1-yl)piperidine-1-carboxylate], the results for the IC50 in test [1] and in test [2] were 1.42 µM and 2.2 µM, respectively.

On to `CC(C)C[C@@H](COC(=O)N1CCC(n2c(=O)[nH]c3ccccc32)CC1)N(Cc1ccccc1)Cc1ccccc1` [Compound 108, (S)-2-(dibenzylamino)-4-methylpentyl 4-(1,2-dihydro-2-oxobenzo[d]imidazol-3-yl)piperidine-1-carboxylate], for which the IC50 turned out to be 2.61 µM in test [1] and 3.75 µM in test [2].

As to `CC(CCOC(=O)N1CCC(n2c(=O)[nH]c3ccccc32)CC1)N(Cc1ccccc1)Cc1ccccc1` (centres unmarked) [Compound 110, 3-(dibenzylamino)butyl 4-(1,2-dihydro-2-oxobenzo[d]imidazol-3-yl)piperidine-1-carboxylate], the IC50 came to 1.48 µM in test [1] and 3.6 µM in test [2].

`O=C(OC[C@H](c1ccccc1)N(Cc1ccccc1)Cc1ccccc1)N1CCC(n2c(=O)[nH]c3ccccc32)CC1` [Compound 112, (S)-2-(dibenzylamino)-2-phenylethyl 4-(1,2-dihydro-2-oxobenzo[d]imidazol-3-yl)piperidine-1-carboxylate]: the IC50 turned out to be 0.5 µM in test [1] and 3.75 µM in test [2].

As to `O=C(OCCCN(Cc1ccccc1)Cc1ccc([N+](=O)[O-])cc1)N1CCC(n2c(=O)[nH]c3ccccc32)CC1` [Compound 114, 3-(benzyl(4-nitrobenzyl)amino)propyl 4-(2-oxo-2,3-dihydro-1H-benzo[d]imidazol-1-yl)piperidine-1-carboxylate hydrochloride], the results for the IC50 in test [1] and in test [2] were 3.17 µM and 3.3 µM, respectively.

In the case of `O=C(OCCN(Cc1ccccc1)Cc1ccc(Br)cc1)N1CCC(n2c(=O)[nH]c3ccccc32)CC1` [Compound 115, 2-(benzyl(4-bromobenzyl)amino)ethyl 4-(2-oxo-2,3-dihydro-1H-benzo[d]imidazol-1-yl)piperidine-1-carboxylate hydrochloride], the results for the IC50 in test [1] and in test [2] were 4.41 µM and 3.2 µM, respectively.

For `O=C(OC[C@@H](Cc1ccccc1)N(Cc1ccccc1)Cc1ccccc1)N1CCC(n2c(=O)[nH]c3ccccc32)CC1` [Compound 118, (R)-2-(dibenzylamino)-3-phenylpropyl 4-(1,2-dihydro-2-oxobenzo[d]imidazol-3-yl)piperidine-1-carboxylate], the IC50 in test [1] is 1.49 µM; in test [2], 2.9 µM.

For `O=C(OCCN(Cc1ccccc1)Cc1ccc(F)cc1)N1CCC(n2c(=O)[nH]c3ccccc32)CC1` [Compound 119, 2-(benzyl(4-fluorobenzyl)amino)ethyl 4-(2-oxo-2,3-dihydro-1H-benzo[d]imidazol-1-yl)piperidine-1-carboxylate hydrochloride], the half-maximal inhibitory concentration (IC50) in test [1] was found to be 3.57 µM; in test [2] it was 1.4 µM.

For the molecule `O=C(OCCN(CCCc1ccccc1)Cc1ccccc1)N1CCC(n2c(=O)[nH]c3ccccc32)CC1` [Compound 120, 2-(benzyl(3-phenylpropyl)amino)ethyl 4-(2-oxo-2,3-dihydro-1H-benzo[d]imidazol-1-yl)piperidine-1-carboxylate hydrochloride], the IC50 in test [1] came out at 3.61 µM; in test [2], 1.7 µM.

Turning to `COc1ccc(CN(CCOC(=O)N2CCC(n3c(=O)[nH]c4ccccc43)CC2)Cc2ccccc2)cc1` [Compound 121, 2-(benzyl(4-methoxybenzyl)amino)ethyl 4-(2-oxo-2,3-dihydro-1H-benzo[d]imidazol-1-yl)piperidine-1-carboxylate hydrochloride], the IC50 in test [1] amounted to 3.49 µM; in test [2], 5 µM.

For the molecule `COc1cccc(CN(CCOC(=O)N2CCC(n3c(=O)[nH]c4ccccc43)CC2)Cc2ccccc2)c1` [Compound 122, 2-(benzyl(3-methoxybenzyl)amino)ethyl 4-(2-oxo-2,3-dihydro-1H-benzo[d]imidazol-1-yl)piperidine-1-carboxylate hydrochloride], the IC50 was determined as 3.72 µM in test [1] and 1.75 µM in test [2].

Take `O=C(OCCN(Cc1ccccc1)Cc1cccc(Oc2ccccc2)c1)N1CCC(n2c(=O)[nH]c3ccccc32)CC1` [Compound 123, 2-(benzyl(3-phenoxybenzyl)amino)ethyl 4-(2-oxo-2,3-dihydro-1H-benzo[d]imidazol-1-yl)piperidine-1-carboxylate hydrochloride]: the IC50 in test [1] turned out to be 1.42 µM; in test [2], 3.7 µM.

Regarding `C[C@@H](COC(=O)N1CCC(n2c(=O)[nH]c3ccccc32)CC1)N(CCCc1ccccc1)Cc1ccccc1` [Compound 125, (S)-2-(benzyl(3-phenylpropyl)amino)propyl 4-(2-oxo-2,3-dihydro-1H-benzo[d]imidazol-1-yl)piperidine-1-carboxylate hydrochloride], the concentration for half-maximal inhibition (IC50) in test [1] was 4.2 µM; in test [2] it was 4 µM.

Take `COc1cccc(CN(Cc2ccccc2)[C@@H](C)COC(=O)N2CCC(n3c(=O)[nH]c4ccccc43)CC2)c1` [Compound 126, (S)-2-(benzyl(3-methoxybenzyl)amino)propyl 4-(2-oxo-2,3-dihydro-1H-benzo[d]imidazol-1-yl)piperidine-1-carboxylate hydrochloride]: the IC50 in test [1] stood at 3.98 µM; in test [2] it was 3.75 µM.

`C[C@@H](COC(=O)N1CCC(n2c(=O)[nH]c3ccccc32)CC1)N(Cc1ccccc1)Cc1cccc(Cl)c1` [Compound 128, (S)-2-(benzyl(3-chlorobenzyl)amino)propyl 4-(2-oxo-2,3-dihydro-1H-benzo[d]imidazol-1-yl)piperidine-1-carboxylate hydrochloride]: the IC50 in test [1] stood at 2.06 µM; in test [2] it was 5 µM.

With `O=C(OCCN(Cc1ccccc1)Cc1ccnc2ccccc12)N1CCC(n2c(=O)[nH]c3ccccc32)CC1` [Compound 131, 2-(benzyl(quinolin-4-ylmethyl)amino)ethyl 4-(2-oxo-2,3-dihydro-1H-benzo[d]imidazol-1-yl)piperidine-1-carboxylate hydrochloride], the 50% inhibitory concentration (IC50) in test [1] stood at 2.95 µM; in test [2] it was 1.05 µM.

As for `Cn1c(CN(CCOC(=O)N2CCC(n3c(=O)[nH]c4ccccc43)CC2)Cc2ccccc2)cc2ccccc21` [Compound 132, 2-(benzyl((1-methyl-1H-indol-2-yl)methyl)amino)ethyl 4-(2-oxo-2,3-dihydro-1H-benzo[d]imidazol-1-yl)piperidine-1-carboxylate hydrochloride], the IC50 in test [1] was found to be 4.2 µM; in test [2] it was 1.2 µM.

Take `C[C@@H](COC(=O)N1CCC(n2c(=O)[nH]c3ccccc32)CC1)N(Cc1ccccc1)Cc1ccnc2ccccc12` [Compound 133, (S)-2-(benzyl(quinolin-4-ylmethyl)amino)propyl 4-(2-oxo-2,3-dihydro-1H-benzo[d]imidazol-1-yl)piperidine-1-carboxylate hydrochloride]: the results for the IC50 in test [1] and in test [2] were 2.55 µM and 1 µM, respectively.

With `O=C(OCCCN(Cc1ccccc1)Cc1ccccn1)N1CCC(n2c(=O)[nH]c3ccccc32)CC1` [Compound 135, 3-(benzyl(pyridin-2-ylmethyl)amino)propyl 4-(2-oxo-2,3-dihydro-1H-benzo[d]imidazol-1-yl)piperidine-1-carboxylate hydrochloride], the IC50 in test [1] turned out to be 3.6 µM; in test [2] it was 2.3 µM.

The values are drawn from patent US20100292214A1, “Compounds with Antiparasitic Activity, Applications thereof to the Treatment of Infectious Diseases Caused by Apicomplexans” (commissariat a l'Energie Atomique, priority 2007, published 2010).
